Values of other authors, collected in patent US20090214716A1 (priority 2005, published 2009).

How the values were obtained:
[1] = target: T1, A2A receptors that are located on the platelet surface (Homo sapiens, UniProt P29274); conditions: chronic caffeine consumption
T1 construct: up-regulation of endogenous adenosine receptors in normal subjects; host or cells: human platelets of normal subjects (endogenous)

[2] = caffeine 0.3 mg/kg/hr vs placebo

T1 sequence (P29274 whole entry): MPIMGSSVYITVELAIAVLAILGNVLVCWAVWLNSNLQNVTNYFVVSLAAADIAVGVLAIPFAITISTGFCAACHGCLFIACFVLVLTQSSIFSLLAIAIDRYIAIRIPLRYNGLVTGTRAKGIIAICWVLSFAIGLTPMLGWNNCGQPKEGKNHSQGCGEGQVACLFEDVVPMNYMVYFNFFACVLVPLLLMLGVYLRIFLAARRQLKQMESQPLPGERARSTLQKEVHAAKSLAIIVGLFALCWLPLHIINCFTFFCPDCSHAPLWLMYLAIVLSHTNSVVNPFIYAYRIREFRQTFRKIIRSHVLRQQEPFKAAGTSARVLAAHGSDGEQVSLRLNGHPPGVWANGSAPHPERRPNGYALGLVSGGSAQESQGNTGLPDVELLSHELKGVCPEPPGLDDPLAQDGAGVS

SMILES: Cn1c(=O)c2c(ncn2C)n(C)c1=O [caffeine, 1,3,7-trimethylxanthine]
- platelet aggregability [1]: reduction in platelet aggregability
- effect on endogenous adenosine receptors ([1]; normal subjects): sensitization and/or up-regulation of endogenous adenosine receptors
- performance on cognitive tests [2]: performed better on cognitive tests
- reported sleepiness [2]: reported feeling sleepier than their placebo counterparts
